Three compounds from US20160244452A1, “HETEROCYCLIC COMPOUNDS AND USES THEREOF” (INFINITY PHARMACEUTICALS, INC., priority 2014, published 2016) can be followed below.

The subject of one assay is BTK or MEK pathway. The assay is described as follows: Effect on BTK or MEK pathway.
Another assay addresses T1, α PI3K (Homo sapiens, UniProt P42336).
T1 construct: purchased Millipore
In words: PI3-Kinase Promega ADP-Glo Max assay, α isoform. Type of assay: biochemical. Particulars: 20 nM kinase, 3 mM ATP, 500 uM diC8-PtdInsP. The procedure:
(§1) PI3-Kinase Promega™ Assay
(§2) Promega ADP-Glo Max assay kit (Cat. No. V7002) was utilized to determine IC50 values for α, β, δ and γ isoforms of human Class I PI3 kinases (Millipore). Samples of kinase (20 nM α or δ, 40 nM β or γ isoform) were incubated with compound for 15 minutes at room temperature in reaction buffer (15 mM HEPES pH 7.4, 20 mM NaCl, 1 mM EGTA, 0.02% Tween 20, 10 mM MgCl2, 0.2 mg/mL bovine-γ-globulins) followed by addition of ATP/diC8-PtdInsP mixture to give final concentrations of 3 mM ATP and 500 uM diC8-PtdInsP. Reactions were incubated at room temperature for 2 hours followed by addition of 25 uL of stop solution. After a 40-minute incubation at room temperature, 50 uL of Promega detection mix was added followed by incubation for 1 hour at room temperature. Plates were then read on Envision plate reader in luminescence mode. Data was converted to % inhibition using the following equation below: […]
(§3) where S is the sample luminescence, Pos is a positive control without added PI3K, Neg is the negative control without added compound. Data was then plotted as % inhibition vs compound concentration. Data fit to 4 parameter logistic equation to determine IC50 values: […]
(§4) Certain compounds provided herein were tested in PI3-Kinase Promega Assay using procedures as described above to determine IC50 values for α, β, δ and/or γ isoforms.

In the next assay the target is T2, β PI3K (Homo sapiens, UniProt P42338).
T2 construct: purchased Millipore
T2 sequence (P42338 whole entry): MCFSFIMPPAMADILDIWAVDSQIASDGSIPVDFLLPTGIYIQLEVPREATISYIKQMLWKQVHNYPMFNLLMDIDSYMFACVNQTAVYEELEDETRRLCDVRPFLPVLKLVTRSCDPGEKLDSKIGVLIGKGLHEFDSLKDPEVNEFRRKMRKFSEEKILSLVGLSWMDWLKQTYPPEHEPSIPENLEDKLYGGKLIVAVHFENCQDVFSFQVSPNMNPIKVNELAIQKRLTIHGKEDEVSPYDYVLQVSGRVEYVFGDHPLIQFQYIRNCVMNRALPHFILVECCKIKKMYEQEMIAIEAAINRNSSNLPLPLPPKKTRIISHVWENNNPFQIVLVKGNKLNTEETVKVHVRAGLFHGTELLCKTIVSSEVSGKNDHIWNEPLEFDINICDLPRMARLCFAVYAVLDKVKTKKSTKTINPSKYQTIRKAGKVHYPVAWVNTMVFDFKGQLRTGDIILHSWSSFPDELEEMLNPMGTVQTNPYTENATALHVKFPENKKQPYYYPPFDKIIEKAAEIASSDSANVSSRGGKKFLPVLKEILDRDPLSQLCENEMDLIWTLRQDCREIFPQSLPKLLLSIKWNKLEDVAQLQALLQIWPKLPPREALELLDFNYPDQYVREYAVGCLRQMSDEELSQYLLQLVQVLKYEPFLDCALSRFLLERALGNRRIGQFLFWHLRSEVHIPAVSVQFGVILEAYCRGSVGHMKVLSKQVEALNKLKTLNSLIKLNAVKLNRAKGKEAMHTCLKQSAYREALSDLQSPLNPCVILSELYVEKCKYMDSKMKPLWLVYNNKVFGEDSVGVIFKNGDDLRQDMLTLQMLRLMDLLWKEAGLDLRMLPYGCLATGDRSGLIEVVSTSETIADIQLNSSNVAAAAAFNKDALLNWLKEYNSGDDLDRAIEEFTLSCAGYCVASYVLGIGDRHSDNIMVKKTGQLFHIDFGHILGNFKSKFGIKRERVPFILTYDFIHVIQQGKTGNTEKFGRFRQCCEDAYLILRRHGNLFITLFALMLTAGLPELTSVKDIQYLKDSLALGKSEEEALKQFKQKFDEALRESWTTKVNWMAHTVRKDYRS
T2 sequence (P27986 whole entry partner): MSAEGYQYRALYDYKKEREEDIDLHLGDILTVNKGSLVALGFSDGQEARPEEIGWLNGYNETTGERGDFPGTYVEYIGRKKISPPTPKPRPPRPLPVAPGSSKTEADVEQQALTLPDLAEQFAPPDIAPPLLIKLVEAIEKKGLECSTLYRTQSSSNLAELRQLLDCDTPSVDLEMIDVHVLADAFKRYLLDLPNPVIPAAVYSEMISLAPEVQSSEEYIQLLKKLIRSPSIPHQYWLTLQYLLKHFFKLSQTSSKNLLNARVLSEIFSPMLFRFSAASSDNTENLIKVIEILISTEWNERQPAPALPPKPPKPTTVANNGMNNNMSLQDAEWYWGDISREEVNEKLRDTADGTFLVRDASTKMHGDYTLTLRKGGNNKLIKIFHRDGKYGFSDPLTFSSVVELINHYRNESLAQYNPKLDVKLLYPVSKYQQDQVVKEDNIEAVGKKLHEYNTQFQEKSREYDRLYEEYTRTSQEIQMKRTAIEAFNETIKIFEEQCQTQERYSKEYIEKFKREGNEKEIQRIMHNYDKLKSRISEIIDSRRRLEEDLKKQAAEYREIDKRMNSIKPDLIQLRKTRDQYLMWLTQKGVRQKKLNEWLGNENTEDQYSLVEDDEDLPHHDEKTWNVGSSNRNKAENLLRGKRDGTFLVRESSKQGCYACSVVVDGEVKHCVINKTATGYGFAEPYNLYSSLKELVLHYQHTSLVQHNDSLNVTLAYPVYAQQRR
In words: PI3-Kinase Promega ADP-Glo Max assay, β isoform. Type of assay: biochemical. Particulars: 40 nM kinase, 3 mM ATP, 500 uM diC8-PtdInsP. As for the experimental part:
as §1, §2, §3, §4
Background: In ADP-Glo the light output rises with the ADP produced.

In another assay the target is T3, δ PI3K (Homo sapiens, UniProt O00329).
T3 construct: purchased Millipore
T3 sequence (O00329 whole entry): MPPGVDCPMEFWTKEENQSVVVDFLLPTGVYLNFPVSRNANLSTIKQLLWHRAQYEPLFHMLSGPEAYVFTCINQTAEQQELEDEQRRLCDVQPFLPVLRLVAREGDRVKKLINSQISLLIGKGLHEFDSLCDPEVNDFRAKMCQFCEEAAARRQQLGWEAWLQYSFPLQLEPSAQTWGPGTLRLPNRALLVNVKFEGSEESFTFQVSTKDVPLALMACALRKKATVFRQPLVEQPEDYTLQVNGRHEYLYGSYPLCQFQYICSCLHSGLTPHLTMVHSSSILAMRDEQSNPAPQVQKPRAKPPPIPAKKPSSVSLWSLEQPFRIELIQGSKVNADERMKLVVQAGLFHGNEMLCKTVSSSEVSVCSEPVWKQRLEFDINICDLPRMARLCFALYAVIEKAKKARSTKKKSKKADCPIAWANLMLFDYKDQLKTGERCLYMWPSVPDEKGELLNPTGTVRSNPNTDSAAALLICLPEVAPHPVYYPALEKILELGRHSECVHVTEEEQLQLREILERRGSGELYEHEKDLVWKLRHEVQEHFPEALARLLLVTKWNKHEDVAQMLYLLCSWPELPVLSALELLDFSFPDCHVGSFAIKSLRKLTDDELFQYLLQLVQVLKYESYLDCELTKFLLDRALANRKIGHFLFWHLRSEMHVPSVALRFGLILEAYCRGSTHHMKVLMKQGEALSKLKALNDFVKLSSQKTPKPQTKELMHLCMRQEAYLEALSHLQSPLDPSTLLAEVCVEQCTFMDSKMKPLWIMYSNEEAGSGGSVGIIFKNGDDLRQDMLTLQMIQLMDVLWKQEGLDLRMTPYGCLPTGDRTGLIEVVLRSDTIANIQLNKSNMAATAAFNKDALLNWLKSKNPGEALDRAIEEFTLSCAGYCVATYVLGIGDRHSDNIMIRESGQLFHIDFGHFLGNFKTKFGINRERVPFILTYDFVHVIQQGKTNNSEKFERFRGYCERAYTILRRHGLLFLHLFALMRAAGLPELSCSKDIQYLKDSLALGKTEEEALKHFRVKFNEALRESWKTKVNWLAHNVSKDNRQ
T3 sequence (P27986 whole entry partner): as the sequence (P27986 whole entry partner) above
In words: PI3-Kinase Promega ADP-Glo Max assay, δ isoform. Type of assay: biochemical. Particulars: 20 nM kinase, 3 mM ATP, 500 uM diC8-PtdInsP. The procedure: as §1, §2, §3, §4

Another assay addresses T4, γ PI3K (Homo sapiens, UniProt P48736).
T4 construct: purchased Millipore
The assay is described as follows: PI3-Kinase Promega ADP-Glo Max assay, γ isoform. Particulars: 40 nM kinase, 3 mM ATP, 500 uM diC8-PtdInsP. Type of assay: biochemical. As for the experimental part: as §1, §2, §3, §4

A further assay addresses T5, p110 δ (Homo sapiens, UniProt O00329).
T5 construct: endogenous in cells; host or cells: RAJI cells
In words: PI3K-δ selective cellular assay: phospho-AKT in anti-human IgM stimulated RAJI cells. Particulars: serum-starved RAJI cells stimulated with anti-human IgM. The format is cell-based. The source says: (a) PI3K-δ Selective Assay
A compound's ability in selectively inhibiting PI3K-δ can be assessed using RAJI cells, i.e., B lymphocyte cells derived from lymphoma patients. Briefly, serum-starved RAJI cells are stimulated with anti-human IgM, thereby causing signaling through the B-cell receptors, as described in, for example, He et al., Leukemia Research (2009) 33: 798-802. B-cell receptor signaling is important for the activation, differentiation, and survival of B cells and certain B-cell derived cancers. Reduction of phospho-AKT is indicative of compounds that can inhibit B-cell proliferation and function in certain diseases. By monitoring the reduction of phospho-AKT in stimulated RAJI cells (using for example, phospho-AKT antibodies), a compound's potential efficacy in selectively inhibiting PI3Kδ can be assessed.
Certain compounds provided herein were tested in RAJI cell model using procedures as described above.

A further assay has as its target T6, p110 γ (Mus musculus, UniProt Q9JHG7).
T6 construct: endogenous in cells; host or cells: RAW264.7 macrophages
The assay is described as follows: PI3K-γ selective cellular assay: phospho-AKT in C5a stimulated RAW264.7 macrophages. Type of assay: cell-based. Particulars: serum-starved RAW264.7 cells stimulated with C5a. An excerpt: (b) PI3K-γ Selective Assay
A compound's ability in selectively inhibiting PI3K-γ can be assessed using RAW264.7 macrophages. Briefly, serum-starved RAW264.7 cells are stimulated with a known GPCR agonist C5a. See, e.g., Camps et al., Nature Medicine (2005) 11(9):936-943. Cells can be treated with test compounds prior to, simultaneously with, or subsequent to the stimulation by C5a. RAW 264.7 cells respond to the complement component fragment C5a through activation of the C5a receptor, and the C5a receptor activates macrophages and induces cell migration. Test compounds' ability to inhibit C5a-mediated AKT phosphorylation is indicative of selective inhibition of PI3K-γ. Thus, by monitoring the reduction of phospho-AKT in stimulated RAW 264.7 cells (using for example, phospho-AKT antibodies), a compound's potential efficacy in selectively inhibiting PI3Kγ can be assessed.
Certain compounds provided herein were tested in RAW 264.7 cell model using procedures as described above.

One may read the IC50 as the concentration needed to halve the response being measured. A higher IC50 goes with weaker potency.

Each structure is given as a SMILES string.

T6 sequence (Q9JHG7 whole entry): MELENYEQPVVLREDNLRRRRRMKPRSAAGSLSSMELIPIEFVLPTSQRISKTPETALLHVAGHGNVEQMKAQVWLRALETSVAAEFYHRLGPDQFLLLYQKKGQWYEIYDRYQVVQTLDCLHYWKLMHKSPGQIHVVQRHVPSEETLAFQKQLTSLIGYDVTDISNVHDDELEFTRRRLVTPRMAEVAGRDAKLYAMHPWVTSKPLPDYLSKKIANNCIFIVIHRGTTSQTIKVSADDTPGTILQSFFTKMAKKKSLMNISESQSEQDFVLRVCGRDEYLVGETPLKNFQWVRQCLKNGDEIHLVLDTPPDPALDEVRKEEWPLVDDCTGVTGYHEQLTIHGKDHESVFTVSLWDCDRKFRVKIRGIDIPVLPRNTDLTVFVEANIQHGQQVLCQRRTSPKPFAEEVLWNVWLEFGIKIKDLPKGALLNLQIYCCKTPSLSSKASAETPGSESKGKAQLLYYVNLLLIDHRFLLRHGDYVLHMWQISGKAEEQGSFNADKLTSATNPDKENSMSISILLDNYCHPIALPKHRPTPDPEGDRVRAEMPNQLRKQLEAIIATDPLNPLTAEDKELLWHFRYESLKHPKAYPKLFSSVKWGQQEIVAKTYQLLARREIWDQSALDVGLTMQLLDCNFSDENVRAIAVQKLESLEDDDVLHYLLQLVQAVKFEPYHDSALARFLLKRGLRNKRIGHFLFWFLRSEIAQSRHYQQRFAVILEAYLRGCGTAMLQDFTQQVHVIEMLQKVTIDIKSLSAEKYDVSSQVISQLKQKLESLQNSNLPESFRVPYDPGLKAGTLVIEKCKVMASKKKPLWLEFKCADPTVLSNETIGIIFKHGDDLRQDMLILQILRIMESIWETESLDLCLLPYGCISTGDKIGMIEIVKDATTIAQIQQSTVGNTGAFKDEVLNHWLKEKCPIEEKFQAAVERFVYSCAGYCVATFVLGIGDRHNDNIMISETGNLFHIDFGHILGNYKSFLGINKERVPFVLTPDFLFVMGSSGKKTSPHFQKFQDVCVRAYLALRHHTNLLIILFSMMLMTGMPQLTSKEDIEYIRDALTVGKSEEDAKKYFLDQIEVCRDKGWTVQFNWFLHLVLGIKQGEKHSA
T4 sequence (P48736 whole entry): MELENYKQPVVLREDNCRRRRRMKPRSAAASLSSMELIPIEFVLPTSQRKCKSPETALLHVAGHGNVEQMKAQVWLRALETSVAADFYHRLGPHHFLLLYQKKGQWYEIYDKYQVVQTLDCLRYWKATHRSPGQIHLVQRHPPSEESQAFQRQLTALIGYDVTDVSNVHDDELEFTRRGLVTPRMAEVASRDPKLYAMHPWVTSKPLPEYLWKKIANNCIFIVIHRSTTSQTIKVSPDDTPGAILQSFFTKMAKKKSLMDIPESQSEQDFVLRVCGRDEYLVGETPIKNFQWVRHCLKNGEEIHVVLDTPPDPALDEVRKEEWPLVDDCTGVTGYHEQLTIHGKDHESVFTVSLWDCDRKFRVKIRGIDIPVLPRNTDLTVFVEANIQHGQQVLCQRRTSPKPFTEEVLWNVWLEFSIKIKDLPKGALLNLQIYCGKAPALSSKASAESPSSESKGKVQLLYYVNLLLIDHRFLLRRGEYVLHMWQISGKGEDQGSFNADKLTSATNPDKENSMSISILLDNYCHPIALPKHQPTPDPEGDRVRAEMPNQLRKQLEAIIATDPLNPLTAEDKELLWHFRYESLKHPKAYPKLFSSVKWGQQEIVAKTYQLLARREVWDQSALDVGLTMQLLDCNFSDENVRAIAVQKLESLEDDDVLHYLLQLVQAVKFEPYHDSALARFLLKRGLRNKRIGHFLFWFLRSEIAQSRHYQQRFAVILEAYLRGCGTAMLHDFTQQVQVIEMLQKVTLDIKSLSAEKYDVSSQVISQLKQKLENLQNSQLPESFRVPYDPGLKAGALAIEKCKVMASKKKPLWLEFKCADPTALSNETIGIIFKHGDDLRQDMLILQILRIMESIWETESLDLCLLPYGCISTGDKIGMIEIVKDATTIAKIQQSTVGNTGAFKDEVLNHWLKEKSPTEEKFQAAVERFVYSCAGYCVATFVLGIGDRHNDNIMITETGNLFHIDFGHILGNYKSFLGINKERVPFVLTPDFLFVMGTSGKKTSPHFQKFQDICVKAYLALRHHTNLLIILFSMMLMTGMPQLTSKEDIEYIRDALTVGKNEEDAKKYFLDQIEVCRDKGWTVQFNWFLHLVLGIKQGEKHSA

As to `CCC(Nc1ncnc2[nH]cnc12)c1cc2cccc(F)c2c(=O)n1-c1ccccc1` (stereo not shown) [Compound 1], the “Effect on BTK or MEK pathway” value with BTK or MEK pathway is listed as “does not affect BTK or MEK pathway”.
For `C[C@H](Nc1ncnc2[nH]cnc12)c1cc2ccc(F)c(Cl)c2c(=O)n1-c1ccccc1` [96 s], the IC50 was 100 to 3500 nM on α PI3K; 100 to 3500 nM on β PI3K; 1 to 10 nM on δ PI3K; 100 to 3500 nM against γ PI3K; 1 to 10 nM on p110 δ; 10 to 100 nM on p110 γ.
Consider `CC[C@H](Nc1ncnc2[nH]cnc12)c1cc2cccc(F)c2c(=O)n1-c1ccccc1` [1 s], for which the half-maximal inhibitory concentration (IC50) against α PI3K lay within 3500 to 10000 nM; against β PI3K, 100 to 3500 nM; against δ PI3K it was 10 to 100 nM; against γ PI3K, 100 to 3500 nM; at p110 δ, 1 to 10 nM; on p110 γ, 100 to 3500 nM.
